The source of these data is US8835646B2, “Organic compounds” (Novartis AG, priority 2005, dated 2014).

For experiment [1], the target named is T1, human aromatase (Homo sapiens, UniProt P11511).
T1 construct: purchased Gentest (Woburn, Mass.)
T1 sequence (P11511 1-503): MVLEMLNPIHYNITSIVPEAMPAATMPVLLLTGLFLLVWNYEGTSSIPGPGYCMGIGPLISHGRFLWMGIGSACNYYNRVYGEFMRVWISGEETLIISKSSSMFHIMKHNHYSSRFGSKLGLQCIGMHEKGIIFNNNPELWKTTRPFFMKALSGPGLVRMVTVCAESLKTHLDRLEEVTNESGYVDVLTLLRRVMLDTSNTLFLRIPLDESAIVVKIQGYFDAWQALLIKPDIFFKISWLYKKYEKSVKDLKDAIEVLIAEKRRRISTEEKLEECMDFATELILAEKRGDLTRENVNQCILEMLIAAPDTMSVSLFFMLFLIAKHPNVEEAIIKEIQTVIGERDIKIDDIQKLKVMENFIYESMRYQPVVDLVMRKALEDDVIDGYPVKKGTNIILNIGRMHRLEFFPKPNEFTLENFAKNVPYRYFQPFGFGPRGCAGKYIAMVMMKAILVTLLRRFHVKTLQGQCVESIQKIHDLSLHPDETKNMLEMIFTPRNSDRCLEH
Nature of the experiment: human aromatase assay (Supersomes, DBF substrate, fluorescence). The following applies: for inhibition at 10 µM: 10000 nM. Type of experiment: biochemical. An excerpt: (§1) Human adrenocortical carcinoma NCl-H295R cell line is obtained from American Type Culture Collection (Manassas, Va.). Insulin/transferrin/selenium (ITS)-A supplement (100×), DMEM/F-12, antibiotic/antimycotic (100×), and fetal calf serum (FCS) are purchased from Gibco (Grand Island, N.Y.). Anti-mouse PVT scintillation proximity assay (SPA) beads and NBS 96-well plates are obtained from Amersham (Piscataway, N.J.) and Corning (Acton, Mass.), respectively. Solid black 96-well flat bottom plates are purchased from Costar (Corning, N.Y.). Aldosterone and angiotensin (Ang II) are purchased from Sigma (St. Louis, Mo.). D-[1,2,6,7-^3H(N)]aldosterone was acquired from PerkinElmer (Boston, Mass.). Nu-serum was a product of BD Biosciences (Franklin Lakes, N.J.). The NADPH regenerating system, dibenzylfluorescein (DBF), and human aromatase Supersomes® are obtained from Gentest (Woburn, Mass.).
To measure aromatase activity, the human aromatase assay is performed in 96-well flat bottom plates according to a published protocol (Stresser et al, 2000) with minor modifications. Briefly, 10 μl of an NADPH regenerating system containing 2.6 mM NADP^+, 6.6 mM glucose 6-phosphate, 6.6 mM MgCl2, and 0.8 U/ml glucose-6-phosphate dehydrogenase in 50 mM potassium phosphate, pH 7.4, is pre-incubated with the test compound at a desired concentration at 30° C. for 10 min in a total volume of 100 μl. Afterwards, 4 pmol of human aromatase, 20 μg of control microsomal protein, and 4 μM DBF in 100 μl of 50 mM potassium phosphate, pH 7.4, is added to each well and incubated at 30° C. for 90 min. The reaction is terminated by the addition of 75 μl of 2 N NaOH to each well. After 2 hr, the product, fluorescein, is measured by a fluorimeter using excitation and emission wavelengths of 485 and 538 nm, respectively.
(§2) Full concentration-response curves of the test compound are performed at least 3 times. The IC50 values are derived using a non-linear least squares curve-fitting program from Microsoft XLfit.

Experiment [2] deals with T2, aldosterone synthase (Homo sapiens, UniProt P19099).
T2 construct: host or cells: NCI-H295R
T2 sequence (P19099 25-503): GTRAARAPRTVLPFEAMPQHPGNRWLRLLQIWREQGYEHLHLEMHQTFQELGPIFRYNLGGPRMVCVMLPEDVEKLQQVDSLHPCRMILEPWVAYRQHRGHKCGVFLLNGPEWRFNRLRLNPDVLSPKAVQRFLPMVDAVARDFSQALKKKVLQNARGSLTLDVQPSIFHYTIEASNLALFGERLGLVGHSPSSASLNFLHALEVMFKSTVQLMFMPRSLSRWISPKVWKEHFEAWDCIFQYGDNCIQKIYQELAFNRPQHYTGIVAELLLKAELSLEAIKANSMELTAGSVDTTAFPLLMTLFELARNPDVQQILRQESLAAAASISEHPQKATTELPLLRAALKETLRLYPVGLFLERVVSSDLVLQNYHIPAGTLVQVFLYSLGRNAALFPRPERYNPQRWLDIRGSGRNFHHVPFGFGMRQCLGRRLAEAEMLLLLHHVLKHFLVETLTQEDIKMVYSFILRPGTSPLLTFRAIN
The experiment in a line: cellular aldosterone production in NCI-H295R cells stimulated with Ang II (RIA/SPA). Format: cell-based. As to conditions: human adrenocortical carcinoma NCI-H295R cells, 1 μM Ang II, 24 hr.
Description: as §1
For in vitro measurement of aldosterone activity, human adrenocortical carcinoma NCI-H295R cells are seeded in NBS 96-well plates at a density of 25,000 cells/well in 100 μl of a growth medium containing DMEM/F12 supplemented with 10% FCS, 2.5% Nu-serum, 1 μg ITS/ml, and 1× antibiotic/antimycotic. The medium is changed after culturing for 3 days at 37° C. under an atmosphere of 5% CO2/95% air. On the following day, cells are rinsed with 100 μl of DMEM/F12 and incubated with 100 μl of treatment medium containing 1 μM Ang II and a compound at different concentrations in quadruplicate wells at 37° C. for 24 hr. At the end of incubation, 50 μl of medium is withdrawn from each well for measurement of aldosterone production by an RIA using mouse anti-aldosterone monoclonal antibodies.
Measurement of aldosterone activity can also be performed using a 96-well plate format. Each test sample is incubated with 0.02 μCi of D-[1,2,6,7-^3H(N)]aldosterone and 0.3 μg of anti-aldosterone antibody in phosphate-buffered saline (PBS) containing 0.1% Triton X-100, 0.1% bovine serum albumin, and 12% glycerol in a total volume of 200 μl at room temperature for 1 hr. Anti-mouse PVT SPA beads (50 μl) are then added to each well and incubated overnight at room temperature prior to counting in a Microbeta plate counter. The amount of aldosterone in each sample is calculated by comparing with a standard curve generated using known quantities of the hormone.
as §2

Read-outs that look alike come from different tables or passages of the source.

As a reminder, the inhibition is the share of the control response that was lost under treatment. A high value points to a strong effect. One may read the IC50 as the point on the concentration scale where inhibition reaches its midpoint. For `N#Cc1ccc([C@@H]2C[C@H](Cc3ccc(F)cc3)Cc3cncn32)c(F)c1` (relative stereo) [cis- and trans-3-Fluoro-4-[7-(4-fluorobenzyl)-5,6,7,8-tetrahydroimidazo[1,5-a]pyridin-5-yl]benzonitrile], in experiment [1], the inhibition at 10 µM came out at 100%. This compound also returned a concentration for half-maximal inhibition (IC50) in experiment [2] of 0.007 µM.
The compound `COc1cc(C#N)ccc1[C@@H]1C[C@@H](Cc2ccc(F)cc2)Cc2cncn21` (relative stereo) [trans-3-Methoxy-4-[7-(4-fluorobenzyl)-5,6,7,8-tetrahydroimidazo[1,5-a]pyridin-5-yl]benzonitrile] returned an inhibition at 10 µM in experiment [1] of 100%. Besides, in experiment [2], half-maximal inhibition (IC50) required 0.083 µM.
As for `Cc1cc(C#N)ccc1C1CCc2cncn21` (single isomer, unassigned) [4-(6,7-Dihydro-5H-pyrrolo[1,2-c]imidazol-5-yl)-3-methylbenzonitrile], in experiment [1], the “% inhibition of aromatase @ 10000 nM” value amounted to 96% and the inhibition at 10 µM was found to be 96%.
For the compound `CC1CCCC(c2ccc(C#N)cc2-c2ccc(F)cc2)n2cncc21` (single isomer, unassigned) [4′-Fluoro-6-(9-methyl-6,7,8,9-tetrahydro-5H-imidazo[1,5-a]az] [4′-Fluoro-6-(9-methyl-6,7,8,9-tetrahydro-5H-imidazo[1,5-a]azepin-5-yl)biphenyl-3-carbonitrile], the “% inhibition of aromatase @ 10000 nM” value in experiment [1] (10 µM) was determined as 98%.
In experiment [1], `CC1CCCC(c2ccc(C#N)cc2-c2ccc(F)cc2)n2cncc21` (single isomer, unassigned) [4′-Fluoro-6-(9-methyl-6,7,8,9-tetrahydro-5H-imidazo[1,5-a]azepin-5-yl)biphenyl-3-carbonitrile] displayed an inhibition at 10 µM of 81%.
For the compound `N#Cc1ccc(C2(C(=O)OCc3ccc(F)cc3)CCc3cncn32)c(Cl)c1` (single isomer, unassigned) [5-(2-Chloro-4-cyanophenyl)-6,7-dihydro-5H-pyrrolo[1,2-c]imid] [5-(2-Chloro-4-cyanophenyl)-6,7-dihydro-5H-pyrrolo[1,2-c]imidazole-5-carboxylic acid 4-fluorobenzyl ester], the “% inhibition of aromatase @ 10000 nM” value in experiment [1] (10 µM) was 98%.
`N#Cc1ccc(C2(C(=O)OCc3ccc(F)cc3)CCc3cncn32)c(Cl)c1` (single isomer, unassigned) [5-(2-Chloro-4-cyanophenyl)-6,7-dihydro-5H-pyrrolo[1,2-c]imidazole-5-carboxylic acid 4-fluorobenzyl ester] showed an inhibition at 10 µM in experiment [1] of 91%.
On the same count and under the same terms, under `COc1ccc(CN(C)C(=O)C2(c3ccc(C#N)cc3Cl)CCc3cncn32)cc1` (single isomer, unassigned) [5-(2-Chloro-4-cyanophenyl)-6,7-dihydro-5H-pyrrolo[1,2-c]imidazole-5-carboxylic acid (4-methoxybenzyl)methylamide] stands 98%.
With `COc1ccc(CN(C)C(=O)C2(c3ccc(C#N)cc3Cl)CCc3cncn32)cc1` (single isomer, unassigned) [5-(2-chloro-4-cyanophenyl)-6,7-dihydro-5H-pyrrolo[1,2-c]imid] [5-(2-Chloro-4-cyanophenyl)-6,7-dihydro-5H-pyrrolo[1,2-c]imidazole-5-carboxylic acid (4-methoxybenzyl)methylamide], the “% inhibition of aromatase @ 10000 nM” value in experiment [1] (10 µM) came to 97%.
In experiment [1], `N#Cc1ccc(C2CCCCc3cncn32)cc1Br` (stereo not drawn) [2-Bromo-4-(6,7,8,9-tetrahydro-5H-imidazo[1,5-a]azepin-5-yl)benzonitrile] came in with an inhibition at 10 µM of 100%. The IC50 in experiment [2] was determined as 0.023 µM.
On the same counts, the results for `Cc1noc(C)c1-c1cc(C#N)ccc1C1CCCCc2cncn21` (stereo not drawn) [3-(3,5-Dimethylisoxazol-4-yl)-4-(6,7,8,9-tetrahydro-5H-imidazo[1,5-a]azepin-5-yl)benzonitrile] are 59% and 0.04 µM.
The like results for `N#Cc1ccc(C2CCc3cncn32)c(N)c1` (stereo not drawn) [3-Amino-4-(6,7-dihydro-5H-pyrrolo[1,2-c]imidazol-5-yl)benzonitrile] were, in that order, 100% and 0.09 µM.
In the case of `N#Cc1ccc(C2CCCCc3cncn32)c(Cl)c1` (stereo not drawn) [3-Chloro-4-(6,7,8,9-tetrahydro-5H-imidazo[1,5-a]azepin-5-yl)benzonitrile], in experiment [1], the inhibition at 10 µM came out at 100%. Further, it took 0.048 µM to reach half-maximal inhibition in experiment [2] (IC50).
In turn, `N#Cc1ccc(C2(C(=O)N3CCOCC3)CCc3cncn32)c(Cl)c1` (stereo not drawn) [3-Chloro-4-[5-(morpholino-4-carbonyl)-6,7-dihydro-5H-pyrrolo[1,2-c]imidazol-5-yl]benzonitrile] displayed an IC50 in experiment [2] of 0.357 µM.
Take `N#Cc1ccc(C2(C(=O)N3CCCCC3)CCc3cncn32)c(Cl)c1` (stereo not drawn) [3-Chloro-4-[5-(piperidine-1-carbonyl)-6,7-dihydro-5H-pyrrolo[1,2-c]imidazol-5-yl]benzonitrile]: the inhibition at 10 µM in experiment [1] was determined as 98%. The compound also returned an IC50 in experiment [2] of 0.135 µM.
On the same counts, the results for `CCC1(c2ccc(C#N)cc2Cl)CCCCc2cncn21` (stereo not drawn) [3-Chloro-(5-ethyl-6,7,8,9-tetrahydro-5H-imidazo[1,5-a]azepin-5-yl)benzonitrile] are 91% and 0.217 µM.
The like results for `C=C1CC(c2ccc(C#N)cc2F)n2cncc21` (stereo not drawn) [3-Fluoro-4-(7-methylene-6,7-dihydro-5H-pyrrolo[1,2-c]imidazol-5-yl)benzonitrile] were, in that order, 95% and 0.004 µM.
On the same counts, the results for `COc1cc(C#N)ccc1C1CCCc2cncn21` (stereo not drawn) [3-Methoxy-4-(5,6,7,8-tetrahydro-imidazo[1,5-a]pyridin-5-yl)benzonitrile] are 100% and 0.27 µM.
Take `N#Cc1ccc(C2CCCCc3cncn32)c(-c2cccnc2)c1` (stereo not drawn) [3-Pyridin-3-yl-4-(6,7,8,9-tetrahydro-5H-imidazo[1,5-a]azepin-5-yl)benzonitrile]: the inhibition at 10 µM in experiment [1] was found to be 97%. In experiment [2], this compound registered an IC50 of 0.035 µM.
Turning to `COC(=O)C1(c2ccc(C#N)cc2C(F)(F)F)CCc2cncn21` (stereo not drawn) [5-(4-Cyano-2-trifluoromethylphenyl)-6,7-dihydro-5H-pyrrolo[1,2-c]imidazole-5-carboxylic acid methyl ester], the IC50 in experiment [2] worked out at 0.244 µM.
For the compound `CC1(c2ccc(C#N)cc2-c2ccccc2)CCCc2cncn21` (stereo not drawn) [6-(5-Methyl-5,6,7,8-tetrahydroimidazo[1,5-a]pyridin-5-yl)biphenyl-3-carbonitrile], in experiment [2], the half-maximal inhibitory concentration (IC50) is 0.27 µM.
